Data as given in patent US20030229066A1, “Novel heterocyclic urea derivatives and their use as dopamine D3 receptor ligands” (priority 2001, published 2003).

molecular target: T1, cloned human dopamine D3 receptors (Homo sapiens, UniProt P35462); assay: [N-Methyl-3H]Spiroperidol binding to cloned human dopamine D3 receptors; details: not given
T1 construct: expressed in transfected cells
Excerpt: [N-Methyl-^3H]Spiroperidol Binding to Cloned Human Dopamine D3 Receptors
This assay measures the in vitro activity of compounds on cloned human dopamine (D3) receptors and predicts the direct dopamine-blocking properties of putative neuropsychiatric agents at human dopamine D3 receptors.
The D3 gene was isolated from a human striatal cDNA library (Stratagene). The gene was sequenced and sub-cloned into the expression vector RC/RSV (Invitrogen). CHO (Chinese Hamster Ovary) cells were stably transfected with 10 μg of the D3/RSV plasmid using the DOTAP method from Boehringer Mannheim and 72 clones that were G418 resistant were isolated. Using mRNA and binding displacement data a single high expressing clone was identified. This clone was then grown in large batches for the purpose of developing a 96 well format assay.
The cells are harvested into 250 ml centrifuge tubes with 100 volumes of cold phosphate buffered saline (PBS) and spun down (1200×G for 10 min at 4° C.). The medium is removed and 100 ml PBS are added to each centrifuge tube, cells are resuspened and spun down again. The PBS is removed and the final pellet is homogenized in an appropriate volume of 10% DMSO with a polytron on ice at a medium setting.
For Kj determinations: [^3H]NMSP is made up to a concentration of 2.7 nM in buffer 2b, such that when 150 μl is added to each tube a final concentration of 0.4 nM is attained in the 1 ml assay. Samples of total CPM added are taken for each experiment to calculate the total ligand concentration.
5. S(-)-Eticlopride is obtained from Research Biochemicals International (RBI catalog number E-101). A refrigerated stock (good for up to a month) solution of S(-)-eticlopride is made at a concentration of 30 μM in buffer 2b. One hundred microliters are added to 3 wells for the determination of nonspecific binding (this yields a final concentration of 3 μM in the 1 ml assay).
For most assays, a 100 μM stock solution of the test compound is made up in a suitable solvent (usually <0.1% acetic acid) and serially diluted with buffer 2b, such that when 100 μl of drug is combined with the total 1 ml assay, final concentrations ranging from 10^−5-10^−8 M are attained. Characteristically eight concentrations are studied for each assay; however, higher or lower concentrations may be used, depending on the potency of the drug.
The 96-Well Packard Unifilters GF/B are incubated for >1 h at 25° C. in 0.1% polyethylamine (from 3,b). The cold tissue is added last and mixed on a orbital shaker for a few seconds and is then incubated at 37° C. for 30 min in a shaking water bath. The assay is stopped by rapid filtration through Packard Unifilter plates. The filter membranes are then washed with 15 ml of ice-cold 0.05 M Tris buffer. The filters are then dried (˜15 min under a heat lamp or incubated for 15 min in a 60° C. oven) and a bottom seal is applied. Then 40 μl of Packard Microscint 20 scintillation cocktail is added and a permanent topseal (Type P) is applied and heat sealed. The plates are then shaken on an orbital shaker for 1 h and placed in the Packard Topcount and counted for at least 5 minutes for each point.
Specific binding is defined as the difference between total binding and the binding in the presence of 3 μM S-(-)-eticlopride. Total binding is approximately 10% of the total added ligand. Cheng-Prusoff determination (Kj's) are performed using Prism software using a one-site competition curve analysis where the top and the bottom of the non-linear regression are held constant at 0% and 100% percent inhibition. The percent inhibition at each drug concentration is the mean of duplicate determinations.

T1 sequence (P35462 whole entry): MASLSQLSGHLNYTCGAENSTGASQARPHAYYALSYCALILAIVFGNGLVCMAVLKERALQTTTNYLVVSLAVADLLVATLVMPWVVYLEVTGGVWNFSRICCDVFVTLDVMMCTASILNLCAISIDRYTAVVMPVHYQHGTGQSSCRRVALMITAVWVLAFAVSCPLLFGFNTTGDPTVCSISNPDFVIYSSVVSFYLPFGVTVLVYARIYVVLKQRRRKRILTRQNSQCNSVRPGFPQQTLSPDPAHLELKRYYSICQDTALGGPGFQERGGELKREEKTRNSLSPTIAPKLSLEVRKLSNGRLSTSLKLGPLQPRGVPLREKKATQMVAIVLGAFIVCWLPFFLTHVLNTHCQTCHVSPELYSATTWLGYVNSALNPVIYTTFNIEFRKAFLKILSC

Compound	Ki [nM]
CC(=O)c1ccc(NC(=O)NCCCCN2C3CCC2CC(c2noc4cc(F)ccc24)C3)cc1 (stereo not drawn) [compound 817228]	179
O=C(NCCCCN1C2CCC1CC(c1noc3cc(F)ccc13)C2)Nc1ccccc1F (stereo not drawn) [compound 817229]	365
O=C(NCCCCN1C2CCC1CC(c1noc3cc(F)ccc13)C2)Nc1ccc(-c2ccccc2)cc1 (stereo not drawn) [compound 817230]	182
O=C(NCCCCN1C2CCC1CC(c1noc3cc(F)ccc13)C2)Nc1cccc(C(F)(F)F)c1 (stereo not drawn) [compound 817231]	433
Cc1ccc(NC(=O)NCCCCN2C3CCC2CC(c2noc4cc(F)ccc24)C3)cc1 (stereo not drawn) [compound 817234]	256
O=C(NCCCCN1CCN(c2n[nH]c3ccsc23)CC1)Nc1ccc(C(F)(F)F)cc1 [compound 825154]	35.5
O=C(NCCCCN1CCN(c2n[nH]c3ccsc23)CC1)Nc1ccc(OC(F)(F)F)cc1 [compound 825155]	84.8
CCOc1ccc(NC(=O)NCCCCN2CCN(c3n[nH]c4ccsc34)CC2)cc1 [compound 825156]	63.2
O=C(NCCCCN1CCN(c2nn(C(=O)Nc3ccccc3C(F)(F)F)c3ccsc23)CC1)Nc1ccccc1C(F)(F)F [compound 825160]	202
O=C(NCCCCN1CCN(c2nn(C(=O)Nc3ccc(OC(F)(F)F)cc3)c3ccsc23)CC1)Nc1ccc(OC(F)(F)F)cc1 [compound 825167]	374
CCOc1ccc(NC(=O)NCCCCN2CCN(c3nn(C(=O)Nc4ccc(OCC)cc4)c4ccsc34)CC2)cc1 [compound 825168]	47.4
O=C(NCCCCN1CCN(c2cn(C(=O)Nc3ccc(F)cc3)c3ccsc23)CC1)Nc1ccc(F)cc1 [compound 825170]	136
O=C(NCCCCN1CCN(c2nn(C(=O)Nc3ccc(F)cc3F)c3ccsc23)CC1)Nc1ccc(F)cc1F [compound 825171]	496
O=C(NCCCCN1CCCN(c2csc3cc(F)ccc23)CC1)Nc1ccc(Cl)c(Cl)c1 [compound 829191]	43
Cc1cccc(NC(=O)NCCCCN2CCCN(c3csc4cc(F)ccc34)CC2)c1 [compound 829192]	4.03
O=C(NCCCCN1CCCN(c2csc3cc(F)ccc23)CC1)Nc1cccc(Cl)c1 [compound 829193]	7.86
O=C(NCCCCN1CCCN(c2csc3cc(F)ccc23)CC1)Nc1ccc(C(F)(F)F)cc1 [compound 829195]	21.1
O=C(NCCCCN1CCCN(c2csc3cc(F)ccc23)CC1)Nc1cccc(Br)c1 [compound 829196]	10.9
O=C(NCCCCN1CCCN(c2csc3cc(F)ccc23)CC1)Nc1ccc(OC(F)(F)F)cc1 [compound 829197]	34.8

Compound	Ki [nM]
O=C(NCCCCN1CCCN(c2csc3cc(F)ccc23)CC1)Nc1cc(C(F)(F)F)cc(C(F)(F)F)c1 [compound 829198]	65.6
O=C(NCCCCN1CCCN(c2csc3cc(F)ccc23)CC1)Nc1ccc(Cl)c(C(F)(F)F)c1 [compound 829200]	47.8
O=C(NCCCCN1CCCN(c2csc3cc(F)ccc23)CC1)Nc1cc(Cl)cc(Cl)c1 [compound 829202]	16.6
Cc1ccc(NC(=O)NCCCCN2CCCN(c3csc4cc(F)ccc34)CC2)cc1 [compound 829203]	5.64
CSc1ccc(NC(=O)NCCCCN2CCCN(c3csc4cc(F)ccc34)CC2)cc1 [compound 829204]	5
CC(=O)c1cccc(NC(=O)NCCCCN2CCCN(c3csc4cc(F)ccc34)CC2)c1 [compound 829206]	2.5
CC(C)c1ccc(NC(=O)NCCCCN2CCCN(c3csc4cc(F)ccc34)CC2)cc1 [compound 829207]	141
COc1cc(NC(=O)NCCCCN2CCCN(c3csc4cc(F)ccc34)CC2)cc(OC)c1OC [compound 829210]	1.99
O=C(NCCCCN1CCCN(c2csc3cc(F)ccc23)CC1)Nc1cc(C(F)(F)F)ccc1F [compound 829211]	16
O=C(NCCCCN1CCCN(c2csc3cc(F)ccc23)CC1)Nc1c(F)cccc1C(F)(F)F [compound 829212]	49.9
O=C(NCCCCN1CCCN(c2csc3cc(F)ccc23)CC1)Nc1ccc(F)c(C(F)(F)F)c1 [compound 829213]	181
O=C(NCCCCN1CCCN(c2csc3cc(F)ccc23)CC1)Nc1ccc(Cl)cc1 [compound 829214]	14.1
O=C(NCCCCN1CCCN(c2csc3cc(F)ccc23)CC1)Nc1ccc(F)cc1 [compound 829215]	6.59
O=C(NCCCCN1CCCN(c2csc3cc(F)ccc23)CC1)Nc1ccccc1F [compound 829216]	0.178
O=C(NCCCCN1CCCN(c2csc3cc(F)ccc23)CC1)Nc1cccc(F)c1 [compound 829217]	3.51
O=C(NCCCCN1CCCN(c2csc3cc(F)ccc23)CC1)Nc1cccc(C(F)(F)F)c1 [compound 829218]	0.165
COc1ccc(NC(=O)NCCCCN2CCCN(c3csc4cc(F)ccc34)CC2)cc1 [compound 829219]	0.0926
O=C(NCCCCN1CCCN(c2csc3cc(F)ccc23)CC1)Nc1ccc(Br)cc1 [compound 829220]	18.1

same assay, conditions: Table III; read-out: d3Ki

Compound	Ki [nM]
O=C(NCCCCN1CCC(c2noc3ccsc23)CC1)NC12CC3CC(CC(C3)C1)C2 [compound 816210]	187
CC(=O)c1ccc(NC(=O)NCCCCN2CCN(c3c(-c4ccccc4)sc4cc(F)ccc34)CC2)cc1 [compound 816226]	184
O=C(NCCCCN1CCN(c2c(-c3ccccc3)sc3cc(F)ccc23)CC1)NC1CCCCC1 [compound 816232]	5.94
O=C(NCCCCN1CCC(c2noc3ccsc23)CC1)Nc1ccc(F)c([N+](=O)[O-])c1 [compound 816557]	20.7
O=C(NCCCCN1CCC(c2noc3ccsc23)CC1)Nc1ccc(Cl)c([N+](=O)[O-])c1 [compound 816559]	13.1
O=C(NCCCCN1CCC(c2noc3ccsc23)CC1)Nc1ccc([N+](=O)[O-])cc1 [compound 816562]	6.99
CCCCOc1ccc(NC(=O)NCCCCN2CCC(c3noc4ccsc34)CC2)cc1 [compound 816564]	55.9
O=C(NCCCCN1CCC(c2noc3ccsc23)CC1)Nc1ccc(Cl)cc1Cl [compound 816566]	95.1
COc1ccc(NC(=O)NCCCCN2CCC(c3noc4ccsc34)CC2)c(OC)c1 [compound 816567]	73.8
CCOc1ccccc1NC(=O)NCCCCN1CCC(c2noc3ccsc23)CC1 [compound 816764]	85.4
O=C(NCCCCN1CCC(c2noc3ccsc23)CC1)Nc1c(F)cccc1F [compound 816766]	42.9
COc1ccc(NC(=O)NCCCCN2CCC(c3noc4ccsc34)CC2)c(OC)c1 [compound 816767]	60.1
O=C(NCCCCN1CCC(c2noc3ccsc23)CC1)Nc1ccc(Cl)cc1Cl [compound 816769]	57.8
COc1cc(Cl)c(NC(=O)NCCCCN2CCC(c3noc4ccsc34)CC2)c(OC)c1 [compound 816770]	28.2
COc1c(Cl)cccc1NC(=O)NCCCCN1CCC(c2noc3ccsc23)CC1 [compound 816771]	74.1
CCOc1ccccc1NC(=O)NCCCCN1CCC(c2noc3ccsc23)CC1 [compound 816876]	46.9
O=C(NCCCCN1CCC(c2noc3ccsc23)CC1)Nc1c(F)cccc1F [compound 816878]	33.8
COc1ccc(NC(=O)NCCCCN2CCC(c3noc4ccsc34)CC2)c(OC)c1 [compound 816879]	47
O=C(NCCCCN1CCC(c2noc3ccsc23)CC1)Nc1cc(C(F)(F)F)cc(C(F)(F)F)c1 [compound 816881]	23.8
COc1cc(Cl)c(NC(=O)NCCCCN2CCC(c3noc4ccsc34)CC2)c(OC)c1 [compound 816882]	58.6
COc1c(Cl)cccc1NC(=O)NCCCCN1CCC(c2noc3ccsc23)CC1 [compound 816883]	35.5
O=C(NCCCCN1CCC(c2noc3ccsc23)CC1)NCc1ccc(Cl)cc1Cl [compound 816968]	24.2
COc1ccc(NC(=O)NCCCCN2CCC(c3noc4ccsc34)CC2)c(OC)c1 [compound 818310]	133
